Data reported in patent US20250109140A1, “5-[5-(PIPERIDIN-4-YL)THIENO[3,2-C]PYRAZOL-2-YL]INDAZOLE DERIVATIVES AND RELATED COMPOUNDS AS MODULATORS FOR SPLICING NUCLEIC ACIDS AND FOR THE TREATMENT OF PROLIFERATIVE DISEASES” (REMIX THERAPUTICS INC., priority 2022, published 2025).
Where a name gives a salt, the structure may show the parent alone. Read-outs that look alike come from different tables or passages of the source.

Experiments:
Type in all cases: cell-based
[1] = tested on: SMN2 mRNA; test: Splicing RT-qPCR gene panel, SMN2 canonical junction (CJ) mRNA; conditions: Homo sapiens; Table 8; larger gene panel, decrease in CJ mRNA levels
Procedure: (§1) Compounds described herein were used to modulate RNA transcript abundance in cells. The expression of a target mRNA was measured by detecting the formation of an exon-exon junction in the canonical transcript (CJ). A compound mediated exon-inclusion event was detected by observing an increase in formation of a new junction with an alternative exon (AJ). Real-time qPCR assays were used to detect these splicing switches and interrogate the potency of various compounds towards different target genes. A high-throughput real time quantitative PCR (RT-qPCR) assay was developed to measure these two isoforms of the mRNA (CJ and AJ) for exemplary genes, such as HTT, SMN2, and MYB, together with a control housekeeping gene, GAPDH or GUSB or PPIA, used for normalization. Briefly, the A673 or K562 cell line was treated with various compounds described herein (e.g., compounds of Formula (I)). After treatment, the levels of the HTT, MYB, or SMN2 mRNA targets were determined from each sample of cell lysate by cDNA synthesis followed by qPCR.
(§2) The A673 cell line was cultured in DMEM with 10% FBS. Cells were diluted with full growth media and plated in a 96-well plate (15,000 cells in 100 ul media per well). The plate was incubated at 37° C. with 5% CO2 for 24 hours to allow cells to adhere. An 11-point 3-fold serial dilution of the compounds was made in DMSO then diluted in media in an intermediate plate. Compounds were transferred from the intermediate plate to the cell plate with the top dose at a final concentration of 10 uM in the well. Final DMSO concentration was kept at or below 0.25%. The cell plate was returned to the incubator at 37° C. with 5% CO2 for an additional 24 hours.
(§3) The K562 cell line was cultured in IMDM with 10% FBS. For K562, cells were diluted with full growth media and plated in either a 96-well plate (50,000 cells in 50 uL media per well) or a 384-well plate (8,000-40,000 cells in 45 uL media per well). An 11-point 3-fold serial dilution of the compounds were made in DMSO then diluted in media in an intermediate plate. Compound was transferred from the intermediate plate to the cell plate with the top dose at a final concentration of 10 uM in the well. Final DMSO concentration was kept at or below 0.25%. Final volume was 100 uL for 96-well plate and 50 uL for 384-well plate. The cell plate was then placed in an incubator at 37° C. with 5% CO2 for 24 hours.
(§4) The cells were then gently washed with 50 uL-100 uL cold PBS before proceeding to addition of lysis buffer. 30 uL-50 uL of room temperature lysis buffer with DNAse I (and optionally RNAsin) was added to each well. Cells were shaken/mixed thoroughly at room temperature for 5-10 minutes for lysis to take place and then 3 uL-5 uL of room temperature stop solution was added and wells were shaken/mixed again. After 2-5 minutes, the cell lysate plate was transferred to ice for RT-qPCR reaction setup. The lysates could also be frozen at-80° C. for later use.
(§5) In some cases, a direct lysis buffer was used. An appropriate volume of 3× lysis buffer (10 mM Tris, 150 mM NaCl, 1.5%-2.5% Igepal and 0.1-1 U/uL RNAsin, pH 7.4) was directly added to either K562 or A673 cells in media and mixed by pipetting 3 times. The plates were then incubated at room temperature with shaking/rocking for 20-50 minutes to allow for lysis to take place. After this time, the cell lysate plate was transferred to ice to set up for the RT-qPCR reactions. The lysates could also be frozen at −80° C. for later use.
(§6) To set up 10 uL RT-qPCR reactions, cell lysates were transferred to 384-well qPCR plates containing the master mix according to the table below. The plates were sealed, gently vortexed, and spun down before the run. The volumes were adjusted accordingly in some instances where the reaction was carried in 20 μL. The table below summarizes the components of the RT-qPCR reactions:
(§7) The RT-qPCR reaction was performed using a QuantStudio (ThermoFisher) under the following fast cycling conditions. […]

[2] = tested on: HTT mRNA; test: Splicing RT-qPCR assay, HTT canonical (CJ) and alternative (AJ) junction mRNA; conditions: Homo sapiens; for EC50: AC50 = 50% response in AJ mRNA increase
Procedure: as §1, §2, §3, §4, §5, §6, §7

[3] = tested on: MYB mRNA; test: Splicing RT-qPCR assay, MYB canonical (CJ) and alternative (AJ) junction mRNA; conditions: Homo sapiens; for EC50: AC50 = 50% response in AJ mRNA increase
Procedure: as §1, §2, §3, §4, §5, §6, §7

[4] = tested on: Target C mRNA; test: Splicing RT-qPCR gene panel, Target C canonical junction (CJ) mRNA; conditions: Homo sapiens; Table 8; larger gene panel, decrease in CJ mRNA levels
Procedure: as §1, §2, §3, §4, §5, §6, §7

[5] = Table 7, RT-qPCR, A673 or K562 cells, 24 hours treatment
[6] = Table 7, IC50 = 50% response in CJ mRNA decrease, RT-qPCR, A673 or K562 cells, 24 hours treatment, read-out: HTT CJ
[7] = Table 8, larger gene panel, decrease in CJ mRNA levels, read-out: HTT CJ IC50
[8] = Table 7, IC50 = 50% response in CJ mRNA decrease, RT-qPCR, A673 or K562 cells, 24 hours treatment, read-out: MYB CJ
[9] = Table 8, larger gene panel, decrease in CJ mRNA levels, read-out: MYB CJ IC50

IC50 [1] [µM]	EC50 [2, 5] [µM]	IC50 [2, 6] [µM]	IC50 [2, 7] [µM]	EC50 [3, 5] [µM]	IC50 [3, 8] [µM]	IC50 [3, 9] [µM]	IC50 [4] [µM]	SMILES
< 0.1	< 0.1	< 0.1	< 0.1	0.1 to 1	0.1 to 1	0.1 to 1	0.1 to 1	Cc1cc(-c2nc3sc(C4CCNCC4)cc3s2)cc2cn(C)nc12 [Compound 238, 2,7-dimethyl-5-[5-(piperidin-4-yl)thieno[2,3-d][1,3]thiazol-2-yl]indazole]
< 0.1	< 0.1	< 0.1	< 0.1	< 0.1	< 0.1	< 0.1	< 0.1	C[C@@H]1C[C@H](c2cc3sc(-c4cc(F)c5nn(C)cc5c4)nc3s2)CCN1 (single isomer, unassigned) [Compound 192, 7-fluoro-2-methyl-5-[5-(2-methylpiperidin-4-yl)thieno[2,3-d][1,3]thiazol-2-yl]indazole]
< 0.1	< 0.1	< 0.1	< 0.1	0.1 to 1	0.1 to 1	0.1 to 1	0.1 to 1	Cn1cc2cc(N3Cc4sc(C5CCNCC5)cc4C3=O)cc(F)c2n1 [Compound 1119, 5-(7-fluoro-2-methylindazol-5-yl)-2-(piperidin-4-yl)-6H-thieno[2,3-c]pyrrol-4-one]
0.1 to 1	1 to 10	1 to 10	1 to 10	1 to 10	1 to 10	1 to 10	1 to 10	Cn1cc2cc(N3Cc4sc(C5CCNCC5)cc4C3=O)ccc2n1 [Compound 1120]
–	1 to 10	–	1 to 10	> 10	> 10	> 10	> 10	Cn1cc2cc(-n3cc4sc(C5CCNCC5)cc4n3)ccc2n1 [Compound 100, 2-methyl-5-[5-(piperidin-4-yl)thieno[3,2-c]pyrazol-2-yl]indazole]
< 0.1	0.1 to 1	0.1 to 1	0.1 to 1	1 to 10	0.1 to 1	1 to 10	0.1 to 1	Cn1cc2cc(-c3cn4nc(C5CCNCC5)nc4s3)cc(F)c2n1 [Compound 102, 7-fluoro-2-methyl-5-[2-(piperidin-4-yl)-[1,2,4]triazolo[3,2-b][1,3]thiazol-5-yl]indazole]
1 to 10	1 to 10	1 to 10	1 to 10	1 to 10	1 to 10	1 to 10	1 to 10	Cn1cc2ccc(-c3nc4sc(C5CCNCC5)cc4s3)cc2n1 [Compound 127, 2-methyl-6-[5-(piperidin-4-yl)thieno [2,3-d][1,3]thiazol-2-yl]indazole hydrochloride]

The next lines start with the compound.

SMILES	IC50 [1] [µM]	EC50 [2, 5] [µM]	IC50 [2, 6] [µM]	IC50 [2, 7] [µM]	EC50 [3, 5] [µM]	IC50 [3, 8] [µM]	IC50 [3, 9] [µM]	IC50 [4] [µM]
Cc1cn2cc(-c3nc4sc(C5CCNCC5)cc4s3)cc(Cl)c2n1 [Compound 139]	< 0.1	< 0.1	< 0.1	< 0.1	< 0.1	< 0.1	< 0.1	< 0.1
COc1c(-c2cc3cn(C4CCNCC4)nc3s2)cc2c[nH]nc2c1C [Compound 248]	> 10	> 10	> 10	> 10	> 10	> 10	> 10	> 10
Cn1cc2cc(-c3nc4sc(N5CCNC(C)(C)C5)cc4s3)cc(F)c2n1 [Compound 142, 5-[5-(3,3-dimethylpiperazin-1-yl)thieno[2,3-d][1,3]thiazol-2-yl]-7-fluoro-2-methylindazole]	< 0.1	0.1 to 1	0.1 to 1	0.1 to 1	0.1 to 1	0.1 to 1	0.1 to 1	1 to 10
Cc1cn2cc(-c3nc4sc(C5CCNCC5)cc4s3)cc(F)c2n1 [Compound 130, 4-(2-[8-fluoro-2-methylimidazo[1,2-a]pyridin-6-yl]thieno[2,3-d][1,3]thiazol-5-yl)piperidine hydrochloride]	< 0.1	< 0.1	< 0.1	< 0.1	< 0.1	< 0.1	< 0.1	< 0.1
CN(C)C1CCN(c2cc3sc(-c4cc(F)c5nn(C)cc5c4)nc3s2)CC1 [Compound 154, 1-[2-(7-fluoro-2-methylindazol-5-yl)thieno[2,3-d][1,3]thiazol-5-yl]-N,N-dimethylpiperidin-4-amine]	< 0.1	0.1 to 1	0.1 to 1	0.1 to 1	0.1 to 1	0.1 to 1	0.1 to 1	0.1 to 1
Cn1cc2cc(-c3nc4sc(N5CCC56CCNCC6)cc4s3)cc(F)c2n1 [Compound 201, 1-[2-(7-fluoro-2-methylindazol-5-yl)thieno[2,3-d][1,3]thiazol-5-yl]-1,7-diazaspiro[3.5]nonane]	> 10	> 10	> 10	> 10	> 10	> 10	> 10	> 10
Cc1cn2nc(-c3nc4sc(C5=CCNCC5)cc4s3)cc(C)c2n1 [Compound 198, 4-(2-{2,8-dimethylimidazo[1,2-b]pyridazin-6-yl}thieno[2,3-d][1,3]thiazol-5-yl)-1,2,3,6-tetrahydropyridine]	< 0.1	0.1 to 1	< 0.1	0.1 to 1	0.1 to 1	0.1 to 1	0.1 to 1	1 to 10
Cc1cn2nc(-c3nc4sc(C5CCNCC5)cc4s3)cc2c(C)n1 [Compound 133, 4-(2-[4,6-dimethylpyrazolo[1,5-a]pyrazin-2-yl]thieno[2,3-d][1,3]thiazol-5-yl)piperidine]	0.1 to 1	0.1 to 1	0.1 to 1	0.1 to 1	0.1 to 1	0.1 to 1	0.1 to 1	0.1 to 1
Cc1cn2cc(-c3nc4sc(C5CCNCC5)cc4s3)nc(C)c2n1 [Compound 270, 4-(2-{2,8-dimethylimidazo[1,2-a]pyrazin-6-yl}thieno[2,3-d][1,3]thiazol-5-yl)piperidine]	< 0.1	0.1 to 1	< 0.1	0.1 to 1	1 to 10	0.1 to 1	1 to 10	0.1 to 1
Cn1cc2cc(-c3nc4sc(N5CCN6CCCC6C5)cc4s3)cc(F)c2n1 (centres unmarked) [Compound 144, 7-fluoro-5-(5-[hexahydro-1H-pyrrolo[1,2-a]pyrazin-2-yl]thieno[2,3-d][1,3]thiazol-2-yl)-2-methylindazole]	< 0.1	0.1 to 1	1 to 10	0.1 to 1	0.1 to 1	1 to 10	0.1 to 1	> 10
